According to ChEMBL document CHEMBL1144283, “Truncated azinomycin analogues intercalate into DNA” (Bioorg Med Chem Lett, 2005):

Key:
[1] = Inhibitory concentration measured against the prostate cancer cell line DU145; IA:Inactive; format: functional, cell-based, Homo sapiens; conditions: cancer cell lines
[2] = Inhibitory concentration measured against the prostate cancer cell line DU145; format: functional, cell-based, Homo sapiens; conditions: cancer cell lines

IC50 [1]	IC50 [2]	Compound
Not Active	–	COc1cc(C(=O)NCCN2CCCC(Cl)C2)c2cccc(C)c2c1 (stereo not drawn)
Not Active	–	COc1cc(C(=O)NCCN2CCCC(O)C2)c2cccc(C)c2c1 (stereo not drawn)
–	50 nM	COc1cc(C(=O)O[C@H](C(N)=O)[C@]2(C)CO2)c2cccc(C)c2c1
